Data set [1] has as its target Glutamate NMDA receptor. Kind of data set: Displacement of [3H]TCP from NMDA receptor PCP binding site in rat cerebral cortex homogenate. In kind it is tissue-based.
Data set [2] is described as follows: Inhibition of voltage gated sodium channel site 2 at 1 uM. The following applies: tested as the 18F-labelled form.
Data set [3] has as its target Sodium-dependent noradrenaline transporter (Homo sapiens) (UniProt P23975). Kind of data set: Inhibition of norepinephrine transporter at 10 nM. The conditions noted are these: tested as the 18F-labelled form.
Data set [4] can be described thus: Inhibition of GABA A receptor at 10 nM. The conditions noted are these: tested as the 18F-labelled form.
Data set [5] is described as follows: Inhibition of opioid receptor at 1 uM. The conditions noted are these: tested as the 18F-labelled form.
A short description of data set [6]: Inhibition of sigma 2 receptor at 1 uM. The following applies: tested as the 18F-labelled form.
Data set [7] is described as follows: Inhibition of GABA A receptor at 1 uM. The following applies: tested as the 18F-labelled form.
Data set [8] is described as follows: Inhibition of voltage gated sodium channel site 2 at 10 nM. The conditions noted are these: tested as the 18F-labelled form.
The nature of data set [9]: Inhibition of opioid receptor at 10 nM. The conditions noted are these: tested as the 18F-labelled form.
The target in data set [10] is 5-hydroxytryptamine receptor 5A (Homo sapiens) (UniProt P47898). As to the kind of experiment: Inhibition of 5HT5A receptor at 10 nM. The conditions noted are these: tested as the 18F-labelled form.
Data set [11] in a line: Inhibition of sigma 2 receptor at 10 nM. The following applies: tested as the 18F-labelled form.
Data set [12] has as its target 5-hydroxytryptamine receptor 5A (Homo sapiens) (UniProt P47898). Kind of data set: Inhibition of 5HT5A receptor at 1 uM. The conditions noted are these: tested as the 18F-labelled form.
The target in data set [13] is Sigma non-opioid intracellular receptor 1 (Homo sapiens) (UniProt Q99720). As to the kind of experiment: Inhibition of sigma 1 receptor at 10 nM. The following applies: tested as the 18F-labelled form.
For data set [14], the target named is Sodium-dependent noradrenaline transporter (Homo sapiens) (UniProt P23975). Kind of data set: Inhibition of norepinephrine transporter at 1 uM. The following applies: tested as the 18F-labelled form.
Data set [15] concerns the target Sigma non-opioid intracellular receptor 1 (Homo sapiens) (UniProt Q99720). Kind of data set: Inhibition of sigma 1 receptor at 1 uM. The following applies: tested as the 18F-labelled form.
A short description of data set [16]: Binding affinity to NMDA receptor PCP binding site.
The nature of data set [17]: Distribution coefficient, log D at pH 7.5. The following applies: octanol/water. In kind it is physicochemical.
Data set [18] has as its target Voltage-gated inwardly rectifying potassium channel KCNH2 (Homo sapiens, UniProt Q12809). Kind of data set: Inhibition of human ERG at 10 nM. The following applies: 0.01 µM.
Data set [19] is described as follows: Octanol-phosphate buffer partition coefficient, log D at pH 7.4. In kind it is physicochemical.
In data set [20] the target is hERG (KCNH2) (Homo sapiens, UniProt Q12809). As to the kind of experiment: Inhibition of human ERG at 1 uM.
The nature of data set [21]: Lipophilicity, log D of the compound. The format is physicochemical. The following applies: octanol/water.

Experimental findings from ChEMBL document CHEMBL1154954, “Synthesis and in vitro evaluation of (18)F-labelled S-fluoroalkyl diarylguanidines: Novel high-affinity NMDA receptor antagonists for imaging with PET” (Bioorg Med Chem Lett, 2010) are described below.

Active and inactive are the calls of the source. The rule behind the calls is not given here.

Sodium-dependent noradrenaline transporter (Homo sapiens), sequence (P23975 whole entry): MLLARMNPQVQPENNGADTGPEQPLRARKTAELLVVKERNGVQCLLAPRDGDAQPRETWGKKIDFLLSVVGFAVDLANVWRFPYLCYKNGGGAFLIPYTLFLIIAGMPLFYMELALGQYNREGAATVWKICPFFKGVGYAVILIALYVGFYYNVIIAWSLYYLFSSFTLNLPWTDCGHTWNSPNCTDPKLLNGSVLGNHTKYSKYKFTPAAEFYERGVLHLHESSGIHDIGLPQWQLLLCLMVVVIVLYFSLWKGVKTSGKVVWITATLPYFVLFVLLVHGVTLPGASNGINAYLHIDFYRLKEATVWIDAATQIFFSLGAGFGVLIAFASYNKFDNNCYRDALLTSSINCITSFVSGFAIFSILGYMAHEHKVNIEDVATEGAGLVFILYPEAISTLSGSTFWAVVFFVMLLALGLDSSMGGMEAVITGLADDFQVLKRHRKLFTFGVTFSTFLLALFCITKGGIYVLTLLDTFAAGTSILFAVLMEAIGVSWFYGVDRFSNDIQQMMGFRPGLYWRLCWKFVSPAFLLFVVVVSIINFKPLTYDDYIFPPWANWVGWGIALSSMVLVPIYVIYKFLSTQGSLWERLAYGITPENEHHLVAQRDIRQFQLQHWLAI
5-hydroxytryptamine receptor 5A (Homo sapiens), sequence (P47898 whole entry): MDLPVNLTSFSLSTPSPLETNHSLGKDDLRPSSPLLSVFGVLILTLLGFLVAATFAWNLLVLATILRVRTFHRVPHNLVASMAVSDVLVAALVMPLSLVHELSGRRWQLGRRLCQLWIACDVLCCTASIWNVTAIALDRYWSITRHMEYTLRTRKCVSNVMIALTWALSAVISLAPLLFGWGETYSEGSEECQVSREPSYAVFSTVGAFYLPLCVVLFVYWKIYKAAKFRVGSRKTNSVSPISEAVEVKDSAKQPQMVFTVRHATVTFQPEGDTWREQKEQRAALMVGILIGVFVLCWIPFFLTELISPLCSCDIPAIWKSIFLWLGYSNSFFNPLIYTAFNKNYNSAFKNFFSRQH
Sigma non-opioid intracellular receptor 1 (Homo sapiens), sequence (Q99720 whole entry): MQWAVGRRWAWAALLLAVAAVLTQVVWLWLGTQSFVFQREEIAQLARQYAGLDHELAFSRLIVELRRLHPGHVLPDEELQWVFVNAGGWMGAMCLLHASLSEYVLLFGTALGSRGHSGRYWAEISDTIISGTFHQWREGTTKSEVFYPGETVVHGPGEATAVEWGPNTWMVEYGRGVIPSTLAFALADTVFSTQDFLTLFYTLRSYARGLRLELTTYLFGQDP
hERG (KCNH2), sequence (Q12809 whole entry): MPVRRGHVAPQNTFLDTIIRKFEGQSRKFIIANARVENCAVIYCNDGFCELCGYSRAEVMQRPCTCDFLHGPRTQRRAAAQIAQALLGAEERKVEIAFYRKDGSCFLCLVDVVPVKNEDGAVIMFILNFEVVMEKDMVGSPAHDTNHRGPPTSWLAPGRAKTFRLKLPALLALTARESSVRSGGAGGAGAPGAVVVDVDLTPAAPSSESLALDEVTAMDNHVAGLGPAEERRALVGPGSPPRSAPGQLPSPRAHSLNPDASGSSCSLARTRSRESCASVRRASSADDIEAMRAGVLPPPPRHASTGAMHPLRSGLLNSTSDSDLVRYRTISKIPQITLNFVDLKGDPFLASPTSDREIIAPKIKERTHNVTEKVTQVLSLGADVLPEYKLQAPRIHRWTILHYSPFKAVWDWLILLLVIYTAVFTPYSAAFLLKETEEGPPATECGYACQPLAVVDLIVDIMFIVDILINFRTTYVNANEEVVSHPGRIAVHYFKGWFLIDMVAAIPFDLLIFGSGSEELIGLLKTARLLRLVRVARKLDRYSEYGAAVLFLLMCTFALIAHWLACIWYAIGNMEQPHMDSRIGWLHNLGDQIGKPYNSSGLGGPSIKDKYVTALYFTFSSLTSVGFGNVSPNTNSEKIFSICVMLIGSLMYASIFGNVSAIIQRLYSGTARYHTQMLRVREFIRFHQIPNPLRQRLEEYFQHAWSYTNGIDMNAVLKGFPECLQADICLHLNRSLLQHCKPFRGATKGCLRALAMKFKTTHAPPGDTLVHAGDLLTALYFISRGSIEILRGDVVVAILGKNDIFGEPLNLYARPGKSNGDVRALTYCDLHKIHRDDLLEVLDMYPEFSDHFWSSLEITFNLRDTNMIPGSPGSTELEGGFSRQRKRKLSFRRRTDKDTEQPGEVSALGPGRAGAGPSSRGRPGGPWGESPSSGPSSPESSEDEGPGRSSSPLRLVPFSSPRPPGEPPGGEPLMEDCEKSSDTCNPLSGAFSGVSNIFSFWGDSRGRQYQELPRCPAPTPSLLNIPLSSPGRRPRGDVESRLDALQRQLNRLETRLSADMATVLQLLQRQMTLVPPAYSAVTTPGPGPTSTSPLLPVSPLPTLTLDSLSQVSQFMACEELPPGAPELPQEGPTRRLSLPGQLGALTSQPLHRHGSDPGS
Voltage-gated inwardly rectifying potassium channel KCNH2, sequence (Q12809 whole entry): as above

For the compound `CSc1cccc(N(C)C(=N)Nc2cc(SC[18F])ccc2Cl)c1`, the Kd in data set [1] amounted to 1.38 nM.

In data set [2], `CSc1cccc(N(C)C(=N)Nc2cc(SCCF)ccc2Cl)c1` returned an inhibition of 47%. Besides, the result in data set [3], in [4], in data set [8], in [9], in data set [10] and in data set [11] was inactive. For the same compound, the result in data set [13] was inactive. Also, the outcome in data set [5], in [6], in data set [7], in data set [12], in data set [14] and in [15] was Active.

Take `[11CH3]NC1(c2ccccc2)CCCCC1=O` (centres undefined) [[11C]KETAMINE]: the Kd in [16] was found to be 1200 nM.

In data set [17], `CSc1ccc(Cl)c(NC(=N)N(C)c2cccc(S[11CH3])c2)c1` had a logD of 2.68. Further, the Kd in data set [16] was determined as 1.9 nM; in [1], 1.78 nM.

Compound `[18F]CC12NC(Cc3ccccc31)c1ccccc12` (centres undefined) yielded a Kd in data set [16] of 79 nM.

As to `CSc1cccc(N(C)C(=N)Nc2cc(SCC[18F])ccc2Cl)c1`, the Activity entry in [18] is given as “Not Active”. The logD in data set [19] was 2.49. Also, the Kd in data set [1] was 2.35 nM. This compound also had an inhibition at 1 µM in data set [20] of 56%.

With `C[C@]12C[C@@H]3C[C@](N)(C1)C[C@@](C[18F])(C3)C2`, in data set [16], the IC50 is 6000 nM.

On to `CSc1ccc(Cl)c(NC(=N)N(C)c2cccc(O[11CH3])c2)c1`, for which binding in data set [16] was characterised by a dissociation constant (Kd) of 5.2 nM.

With `[18F]CCc1ccc(C2(N3CCCCC3)CCCCC2)s1`, the Kd in data set [16] was found to be 38 nM.

Turning to `CN(C(=N)Nc1cccc2ccccc12)c1cccc([123I])c1`, binding in data set [16] was put at a Kd of 4.2 nM. Further, the logD in data set [21] turned out to be 2.19.
